From patent publication US11497736B2, “Compositions for an orally active 1,2,4-oxadiazole for the treatment of disease” (PTC Therapeutics, Inc., priority 2005, dated 2022)

Tests used:
Format in all cases: in vivo, human
CFTR = experiment: Transepithelial potential difference (TEPD) chloride conductance, Phase 2 study in nonsense-mutation-mediated cystic fibrosis; details: for Mean change in TEPD chloride conductance: 15 CF patients; for Number of patients with improvement in TEPD chloride conductance to normal / Number of patients with ≥−5 mV improvement in TEPD chloride conductance: patients/total
Method: The measurement of transepithelial potential difference (TEPD), also known as nasal potential difference, provides a sensitive evaluation of sodium and chloride transport directly in secretory epithelial cells via assessment of transepithelial bioelectric properties (Knowles et al., 1981, N. Engl. J. Med. 305(25):1489-95; Knowles et al., 1995, Hum. Gene Ther. 6:445). TEPD is performed in each nostril using standardized techniques (Standaert et al., 2004, Ped. Pulm. 37:385-92). In the procedure, a small plastic catheter is used to assess electrical differences across the outer cell membrane of nasal mucosa cells in the nostril. TEPD values are expressed in millivolts, or mV. A chloride conductance equal to or more electrically negative than −5.0 mV is generally considered to be in the normal range. […] TEPD assessments can also be made on rectal epithelial cells and lower respiratory epithelial cells. Because of the role of the CFTR protein in transporting chloride ions across cell membranes, and because of the absence of this protein, cystic fibrosis patients have an abnormal TEPD chloride conductance. As an endpoint, TEPD has the advantage that it can detect chloride transport changes that are a quantitative integration of the presence, functional activity, and apical location of the CFTR in airway cells. Furthermore, it is a direct measure of CFTR activity that is not likely to be affected by supportive or palliative treatments for CF (with the possible exception of systemically administered aminoglycoside antibiotics). Of importance is evidence that TEPD values can correlate with the degree of pulmonary dysfunction and radiographic abnormality (Ho et al., 1997, Eur. Respir. J. 10(9):2018-22; Fajac et al., 1998, Eur. Respir. J 12(6):1295-300; Sermet-Gaudelus et al., 2005, Am. J. Respit. Crit. Care Med. 171(9):1026-1031). […] Under baseline conditions, TEPD-assessed chloride channel activity is very unlikely to normalize spontaneously in patients with CF; any observed improvements in TEPD-assessed chloride channel activity are expected to specifically denote pharmacological activity of CFTR-correcting therapies. Accordingly, it has become the primary endpoint in Phase 1-2 pharmacological and gene replacement studies aimed at correcting CFTR dysfunction (Peckham et al., 1995, AJ. Clin Sci (London). 89(3):277-84; Wilschanski et al., 2003, N. Engl. J Med. 349(15):1433-41).
(§1) 3-[5-(2-Fluoro-phenyl)-[1,2,4]oxadiazol-3-yl]-benzoic acid was provided in a formulation described herein.
(§2) Clinical endpoints were evaluated using the procedures set forth above. TEPD measurements were made prior to treatment and on days 14 and 28 of Cycle 1 and Cycle 2. Nasal mucosal curettage was collected from each nostril of each patient prior to treatment and on days 14 and 28 of Cycle 1 and Cycle 2. Pulmonary tests, including FEV1, FVC and MEF25-75, were measured prior to treatment, on day −1 of Cycle 2, on day 13 or 14 of Cycle 1 and day 13 or 14 of Cycle 2 in the study being conducted in Israel and the same parameters were measured prior to treatment and on day 13 or 14 of Cycle 2 in the study being conducted in the United States.
This is the average of the changes from the beginning to the end of the treatment period in TEPD chloride conductance within each study participant. For example, if the changes in TEPD chloride conductance within each of three participants were −7.0 mV, −2.0 mV and −9.0 mV, the mean change in TEPD chloride conductance among these participants would be −6.0 mV.
For purposes of the trials, a chloride conductance response is defined as a TEPD chloride conductance improvement of at least −5 mV. For example, in a patient with a TEPD chloride conductance value of +1.0 mV at baseline and a TEPD chloride conductance value of −6.0 mV at the end of treatment, the TEPD chloride conductance improvement would be −7.0 mV, representing a chloride conductance response. […]

[1] = Pulmonary function tests (FEV1, FVC) by spirometry, Phase 2 cystic fibrosis study
Method: Pulmonary function tests, including FEV1, FVC, and MEF25-75, are measured using standard spirometry procedures. Assessments of pulmonary function (including MEF25-75, FVC, and, particularly, FEV1) have been acknowledged as definitive clinical endpoints in patients with CF (Food and Drug Administration, 62nd Anti-Infective Drugs Advisory Committee. Discussion of NDA for tobramycin solution for inhalation (Tobi®) for the management of cystic fibrosis patients. November, 1997; Tiddens, 2002, Pediatr. Pulmonol. 34(3): 228-31). […] Pulmonary function testing is simple to administer (even in patients as young as 7 years of age), and uses standardized equipment and techniques that are widely available. Interpretation is performed using well-established normative equations that account for patient age, height, and gender.
as §1, §2
(§3) Statistically significant results and positive trends for secondary endpoints were also observed. In particular, although the trials were not been powered to detect statistical significant changes in secondary endpoints, statistically significant improvements from study entry to the end of the higher-dose treatment cycle in the patients' mean FEV1, FVC and weight were observed.

[2] = Body weight, Phase 2 cystic fibrosis study
Excerpt: as §1, §3

[3] = Patient-reported changes in cystic fibrosis symptoms, asked by trial investigators; details: of the 15 patients in the interim analysis
Excerpt: as §1
In addition, although changes in patient's symptoms were not formally measured through the use of a quality-of-life questionnaire, trial investigators were requested to ask about changes in patients' cystic fibrosis symptoms. In the 15 patients included in the interim analysis, 6 reported general improvements in well being, 6 reported decrease in cough and 10 reported decreased mucus thickness and easier clearing of mucus.

[4] = Best of nostrils, higher dose level
[5] = Best of nostrils, lower dose level
[6] = Mean of both nostrils, higher dose level
[7] = Mean of both nostrils, lower dose level
[8] = Change from study entry to end of higher dose treatment

## O=C(O)c1cccc(-c2noc(-c3ccccc3F)n2)c1 [3-[5-(2-Fluoro-phenyl)-[1,2,4]oxadiazol-3-yl]-benzoic acid]
CFTR; [4]
  Number of patients with improvement in TEPD chloride conductance to normal (percentage): (53%)
  Number of patients with ≥−5 mV improvement in TEPD chloride conductance (percentage): (53%)
  Number of patients with improvement in TEPD chloride conductance to normal: 8/15
  Number of patients with ≥−5 mV improvement in TEPD chloride conductance: 8/15
CFTR; Best of nostrils, higher dose level (10, 10, 20 mg/kg TID oral, 14 days)
  Mean change in TEPD chloride conductance: −6.4 mV
CFTR; [5]
  Number of patients with improvement in TEPD chloride conductance to normal (percentage): (53%)
  Number of patients with ≥−5 mV improvement in TEPD chloride conductance (percentage): (60%)
  Number of patients with improvement in TEPD chloride conductance to normal: 8/15
  Number of patients with ≥−5 mV improvement in TEPD chloride conductance: 9/15
CFTR; Best of nostrils, lower dose level (4, 4, 8 mg/kg TID oral, 14 days)
  Mean change in TEPD chloride conductance: −9.0 mV
CFTR; [6]
  Number of patients with improvement in TEPD chloride conductance to normal (percentage): (47%)
  Number of patients with ≥−5 mV improvement in TEPD chloride conductance (percentage): (47%)
  Number of patients with improvement in TEPD chloride conductance to normal: 7/15
  Number of patients with ≥−5 mV improvement in TEPD chloride conductance: 7/15
CFTR; Mean of both nostrils, higher dose level (10, 10, 20 mg/kg TID oral, 14 days)
  Mean change in TEPD chloride conductance: −4.4 mV
CFTR; [7]
  Number of patients with improvement in TEPD chloride conductance to normal (percentage): (40%)
  Number of patients with ≥−5 mV improvement in TEPD chloride conductance (percentage): (40%)
  Number of patients with improvement in TEPD chloride conductance to normal: 6/15
  Number of patients with ≥−5 mV improvement in TEPD chloride conductance: 6/15
CFTR; Mean of both nostrils, lower dose level (4, 4, 8 mg/kg TID oral, 14 days)
  Mean change in TEPD chloride conductance: −6.7 mV
[1]; [8]
  Mean FEV1 change (percentage of normal for gender, age and height): 3.3%
  Mean FVC change (percentage of normal for gender, age and height): 4.9%
[1]; End of higher dose treatment, study entry 65.8%
  Mean FEV1 (percentage of normal for gender, age and height): 69.1%
[1]; End of higher dose treatment, study entry 80.2%
  Mean FVC (percentage of normal for gender, age and height): 85.1%
[2]; [8]
  Weight change: 0.7 kg
[2]; End of higher dose treatment, study entry 58.3 kg
  Weight: 59.0 kg
[3]
  Patients who reported decrease in cough: 6
  Patients who reported decreased mucus thickness and easier clearing of mucus: 10
  Patients who reported general improvements in well being: 6
